These compounds were tested on U2OS_Bim cells (assay: Apoptosis inhibition assay (Bim-induced apoptosis, cell viability by ATP level)). Details: U2OS_Bim cells; estimated (*Est.) / preliminary results; numbering of Tables 4a/4b; read-out: EC50.
Format: cell-based
Procedure, shortened: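 Apoptosis was triggered by doxycycline (0.1 μg/mL) induction of Bim, one hour after compound addition to U2OS_Bim cells. Survival was measured after 24 h from cellular ATP (CellTiter-Glo), relative to DMSO, with zVAD at 20 μM as rescue control. Data are duplicate means, some estimated from preliminary results.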
With Cc1cc(-c2cc(F)c(=O)n(Cc3ccc4nnn(C)c4c3)c2)nc(S(=O)(=O)CCCN(c2ccccc2)C(C)(C)C)n1 [Compound 380] the EC50 was 1 to 1000 nM. Work on Cc1cc(-c2cc(F)c(=O)n(Cc3ccc4c(c3)OCO4)c2)nc(S(=O)(=O)CCC(OCc2ccccc2F)C(C)(C)C)n1 (centres unmarked) [Compound 400] yielded an EC50 of 1 to 1000 nM. Work on Cc1cc(-c2cc(F)c(=O)n(Cc3ccc4nnn(C)c4c3)c2)nc(S(=O)(=O)CCCn2cnc3ccccc32)n1 [Compound 337, 5-(2-((3-(1H-benzo[d]imidazol-1-yl)propyl)sulfonyl)-6-methylpyrimidin-4-yl)-3-fluoro-1-((1-methyl-1H-benzo[d][1,2,3]triazol-6-yl)methyl)pyridin-2 (1H)-one] yielded an EC50 of 1 to 1000 nM. With Cc1cc(-c2cc(F)c(=O)n(Cc3ccc4c(c3)OCO4)c2)nc(S(=O)(=O)CCC(OCc2ccccc2F)c2ccc3ncsc3c2)n1 (centres unmarked) [Compound 396] the EC50 was 1 to 1000 nM. With Cc1cc(-c2cc(F)c(=O)n(Cc3ccc4c(c3)CC(=O)N4)c2)nc(S(=O)(=O)CCC(OCc2ccccc2F)c2ccccc2)n1 (centres unmarked) [Compound 350] the EC50 was 1 to 1000 nM. For Cc1cc(-c2cc(F)c(=O)n(Cc3ccc4c(c3)OCO4)c2)nc(S(=O)(=O)CCC(OCC2CN(C)C2)c2ccccc2)n1 (centres unmarked) [Compound 416], the EC50 was 1 to 1000 nM. For Cc1cc(-c2cc(F)c(=O)n(Cc3ccc4c(c3)OCO4)c2)nc(S(=O)(=O)CCCC(=O)N(c2ccccc2)C(C)(C)C)n1 [Compound 371], the EC50 was 1 to 1000 nM. For Cc1cc(-c2cc(F)c(=O)n(Cc3ccc4c(c3)OCO4)c2)nc(S(=O)(=O)CCC(OCc2cccs2)c2ccccc2)n1 (centres unmarked) [Compound 405], the EC50 was 1 to 1000 nM.

Same assay, conditions: U2OS_Bim cells; estimated based on preliminary results; numbering of Tables 4a/4b; read-out: EC50
CNc1ccc(Cn2cc(-c3cc(C(F)(F)F)nc([S+](C)[O-])n3)ccc2=O)cc1OC (centres unmarked) [Compound 237] showed an EC50 of less than 10000 nM. For COc1ccc(Cn2cc(-c3cc(-n4ccnc4)nc(S(C)(=O)=O)n3)ccc2=O)cc1OC [Compound 222], the EC50 was less than 10000 nM. Compound COc1ccn(Cn2cc(-c3cc(C(F)(F)F)nc(S(C)(=O)=O)n3)ccc2=O)c1 [Compound 260] has an EC50 of less than 10000 nM. C[S+]([O-])c1nc(-c2ccc(=O)n(Cc3ccc4[nH]cnc4c3)c2)cc(C(F)(F)F)n1 (centres unmarked) [Compound 229] showed an EC50 of less than 10000 nM. Compound CNc1cc(Cn2cc(-c3cc(C(F)(F)F)nc(S(C)(=O)=O)n3)ccc2=O)ccc1OC [Compound 238] has an EC50 of less than 10000 nM. In the case of COc1ccc(Cn2cc(-c3cc(-c4ncco4)nc([S+](C)[O-])n3)ccc2=O)cc1OC (centres unmarked) [Compound 210], the EC50 is reported as less than 10000 nM. Work on COc1ccc(Cn2cc(-c3cc(C(F)(F)F)nc([S+]([O-])CN(C)C)n3)ccc2=O)cc1OC (centres unmarked) [Compound 200] yielded an EC50 of less than 10000 nM. With C[S+]([O-])c1nc(-c2ccc(=O)n(Cc3ccc4c(c3)OCO4)c2)cc(C(F)(F)F)n1 (centres unmarked) [Compound 223] the EC50 was less than 10000 nM. With CCC(=O)c1cc(-c2ccc(=O)n(Cc3ccc(OC)c(OC)c3)c2)nc(S(C)(=O)=O)n1 [Compound 269, 1-(3,4-dimethoxybenzyl)-5-(2-(methylsulfonyl)-6-propionylpyrimidin-4-yl)pyridin-2 (1H)-one] the EC50 was less than 10000 nM.

Same assay, conditions: U2OS_Bim cells; means of duplicates; numbering of Tables 4a/4b; read-out: EC50
In the case of COC(=O)c1cccc(-c2cc(C(F)(F)F)nc(S(C)(=O)=O)n2)c1 [Compound 60, methyl 3-(2-(methylsulfonyl)-6-(trifluoromethyl)pyrimidin-4-yl)benzoate], the EC50 is reported as less than 100000 nM. COc1ccc(Cn2cc(-c3cc(C(F)(F)F)nc([S+](C)[O-])n3)ccc2=O)cc1OC (centres unmarked) [Compound 128, 1-(3,4-dimethoxybenzyl)-5-(2-(methylsulfinyl)-6-(trifluoromethyl)pyrimidin-4-yl)pyridin-2 (1H)-one] showed an EC50 of 1 to 1000 nM. Compound CCCCCCNC(=O)CCC[S+]([O-])c1nc(-c2ccc(=O)n(Cc3ccc(OC)c(OC)c3)c2)cc(C(F)F)n1 (centres unmarked) [Compound 184, 4-((4-(difluoromethyl)-6-(1-(3,4-dimethoxybenzyl)-6-oxo-1,6-dihydropyridin-3-yl)pyrimidin-2-yl)sulfinyl)-N-hexylbutanamide] has an EC50 of 1 to 1000 nM. In the case of C#Cc1ccc(-c2cc(C(F)(F)F)nc(S(C)(=O)=O)n2)cc1 [Compound 49, 4-(4-ethynylphenyl)-2-(methylsulfonyl)-6-(trifluoromethyl)pyrimidine], the EC50 is reported as less than 100000 nM. COc1ccc(Cn2cc(-c3cc(C(F)F)nc([S+]([O-])CCC(OCc4ccccc4F)c4ccccc4)n3)ccc2=O)cc1F (centres unmarked) [Compound 283, 5-(6-(difluoromethyl)-2-(3-(2-fluorobenzyloxy)-3-phenylpropylsulfinyl)pyrimidin-4-yl)-1-(3-fluoro-4-methoxybenzyl)pyridin-2 (1H)-one] showed an EC50 of 1 to 1000 nM. Cc1cc(-c2cc(F)c(=O)n(CC3CCNCC3)c2)nc(S(=O)(=O)CCC(OCc2ccc(F)cc2F)c2ccccc2)n1 (centres unmarked) [Compound 312, 5-(2-(3-(2,4-difluorobenzyloxy)-3-phenylpropylsulfonyl)-6-methylpyrimidin-4-yl)-3-fluoro-1-(piperidin-4-ylmethyl)pyridin-2 (1H)-one] gave an EC50 of less than 100000 nM. Cc1cc(-c2cc(F)c(=O)n(CC3CCOCC3)c2)nc([S+]([O-])CCC(OCc2ccc(F)cc2F)c2ccccc2)n1 (centres unmarked) [Compound 313, 5-(2-(3-(2,4-difluorobenzyloxy)-3-phenylpropylsulfinyl)-6-methylpyrimidin-4-yl)-3-fluoro-1-((tetrahydro-2H-pyran-4-yl)methyl)pyridin-2 (1H)-one] was tested, and the EC50 was 1000 to 10000 nM. In the case of CS(=O)(=O)c1nc(-c2cccc(F)c2)cc(C(F)(F)F)n1 [Compound 44, 4-(3-fluorophenyl)-2-(methylsulfonyl)-6-(trifluoromethyl)pyrimidine], the EC50 is reported as 1000 to 10000 nM. C#CCOc1cccc(-c2cc(C(F)(F)F)nc([S+](C)[O-])n2)c1 (centres unmarked) [Compound 72, 2-(methylsulfinyl)-4-(3-(prop-2-yn-1-yloxy)phenyl)-6-(trifluoromethyl) pyrimidine] was tested, and the EC50 was 1000 to 10000 nM. Work on COc1cc(Cl)c(Cn2cc(-c3cc(C(F)(F)F)nc(S(=O)(=O)CCCC(=O)N4CCOCC4)n3)ccc2=O)cc1OC [Compound 157, 1-(2-chloro-4,5-dimethoxybenzyl)-5-(2-((4-morpholino-4-oxobutyl)sulfonyl)-6-(trifluoromethyl)pyrimidin-4-yl)pyridin-2 (1H)-one] yielded an EC50 of 1 to 1000 nM. With COc1ccc(Cn2cc(-c3cc(C(C)(F)F)nc(S(C)(=O)=O)n3)ccc2=O)cc1OC [Compound 164, 5-(6-(1,1-difluoroethyl)-2-(methylsulfonyl)pyrimidin-4-yl)-1-(3,4-dimethoxybenzyl)pyridin-2 (1H)-one] the EC50 was 1 to 1000 nM. COc1ccc(Cn2cc(-c3cc(C(F)(F)F)nc(S(=O)(=O)CCCC(=O)N(C)C)n3)ccc2=O)cc1OC [Compound 151, 4-((4-(1-(3,4-dimethoxybenzyl)-6-oxo-1,6-dihydropyridin-3-yl)-6-(trifluoromethyl)pyrimidin-2-yl)sulfonyl)-N,N-dimethylbutanamide] gave an EC50 of 1 to 1000 nM. C#CCOc1cccc(Cn2cc(-c3cc(C(F)(F)F)nc(S(C)(=O)=O)n3)ccc2=O)c1 [Compound 115, 5-(2-(methylsulfonyl)-6-(trifluoromethyl)pyrimidin-4-yl)-1-(3-(prop-2-yn-1-yloxy)benzyl) pyridin-2 (1H)-one] showed an EC50 of 1 to 1000 nM. CS(=O)(=O)c1nc(-c2ccc(=O)n(Cc3ccc(-n4cccn4)cc3)c2)cc(C(F)(F)F)n1 [Compound 132, 1-(4-(1H-pyrazol-1-yl)benzyl)-5-(2-(methylsulfonyl)-6-(trifluoromethyl)pyrimidin-4-yl)pyridin-2 (1H)-one] was tested, and the EC50 was 1 to 1000 nM. CNC(=O)c1ccc(-c2cc(C(F)(F)F)nc(S(C)(=O)=O)n2)cc1 [Compound 68, N-methyl-4-(2-(methylsulfonyl)-6-(trifluoromethyl)pyrimidin-4-yl)benzamide] was tested, and the EC50 was 1000 to 20000 nM.

From patent US11725000B2, “Apoptosis inhibitors” (National Institute of Biological Sciences, Beijing, priority 2017, dated 2023)
